Measured values taken from article PMC8582824, “Targeting DDX3X Helicase Activity with BA103 Shows Promising Therapeutic Effects in Preclinical Glioblastoma Models” (Cancers, 2021).

Assays:
ATPase DDX3X = biological target: T1, ATPase DDX3X (Homo sapiens, UniProt O00571); experiment: DDX3X ATPase activity inhibition; format: biochemical; settings: for IC50: >200 = less than 20% inhibition at 200 µM, highest concentration tested, read-out: ATPase DDX3X IC50 ± SD
T1 construct: Recombinant his-tagged human full length DDX3X; His tag; made in house; host or cells: ShuffleT7 E. coli
Description: (§1) To confirm the proposed mechanism of action and the selectivity of our compounds for the helicase binding site, we tested the capability of BA103 to inhibit the ATPase activity of DDX3X and the helicase activity of DDX1, which is another human member of the DEAD-box family.

DDX1 = biological target: T2, DDX1 (Homo sapiens, UniProt Q92499); experiment: DDX1 helicase activity inhibition; format: biochemical; settings: for IC50: helicase activity of DDX1, read-out: DDX1 IC50 ± SD
T2 sequence (Q92499 1-740): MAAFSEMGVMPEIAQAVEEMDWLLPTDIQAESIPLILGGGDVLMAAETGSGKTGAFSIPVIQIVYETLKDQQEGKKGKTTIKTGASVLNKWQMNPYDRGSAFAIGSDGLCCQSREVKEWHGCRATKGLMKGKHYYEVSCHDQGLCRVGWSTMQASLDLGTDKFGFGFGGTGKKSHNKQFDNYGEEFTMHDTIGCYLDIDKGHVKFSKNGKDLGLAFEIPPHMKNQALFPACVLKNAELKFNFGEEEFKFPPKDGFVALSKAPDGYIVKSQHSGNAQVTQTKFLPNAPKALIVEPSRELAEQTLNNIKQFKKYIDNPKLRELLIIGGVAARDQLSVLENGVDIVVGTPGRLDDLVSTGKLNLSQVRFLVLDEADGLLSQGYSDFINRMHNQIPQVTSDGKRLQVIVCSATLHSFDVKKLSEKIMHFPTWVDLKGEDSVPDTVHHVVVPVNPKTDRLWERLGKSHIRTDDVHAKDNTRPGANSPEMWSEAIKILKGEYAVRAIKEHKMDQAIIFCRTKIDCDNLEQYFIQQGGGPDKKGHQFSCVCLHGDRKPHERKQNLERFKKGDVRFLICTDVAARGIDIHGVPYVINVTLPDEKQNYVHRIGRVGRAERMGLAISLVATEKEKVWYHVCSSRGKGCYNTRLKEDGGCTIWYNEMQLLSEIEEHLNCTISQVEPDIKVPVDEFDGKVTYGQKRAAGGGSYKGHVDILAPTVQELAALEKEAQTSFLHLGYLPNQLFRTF
Description: as §1

[1] = system: panel of cancer cell lines (Du-145, PC3, HepG2, Huh-7, HN6, U87 and U231); experiment: Cytotoxicity screen on panel of cancer cell lines; format: cell-based; settings: 72 h of treatment
Description: (§2) For CellTiter 96® Aqueous One Solution Cell Proliferation Assay (MTS) (Promega, Madison, WI, USA), cells were seeded at 5 × 10^3 per well in 96-well plates in quadruplicate together a control with no cells to evaluate the background. After 24 h, the culture medium was removed, and fresh medium containing increasing concentrations of chemical compounds was added to cells. The fixed final concentrations were 0.1 μM, 1 μM, 10 μM, and 100 μM. DMSO was the vehicle used for dilution of the compounds, and its final concentration on cells was less than 0.2%. Medium-only containing wells were included as controls. […] After 3 h at 37 °C in a humidified, 5% CO2 atmosphere, the absorbance at 492 nm was recorded using an EZREAD400 (Biochrom, Cambridge, United Kingdom) plate reader. The average 490 nm absorbance from the “no cell” control wells was subtracted from all other values to yield background-corrected absorbance. Dose–response curves and CC50 values have been calculated by plotting the absorbance data as a function of inhibitor concentrations and fitting the data by least-squares nonlinear regression, according to the method of Marquardt–Levenberg, with the computer program GraphPad Prism 6.0.
(§3) Cells were incubated with a scalar concentration of DDX3X inhibitors, and after 72 h of treatment, cell viability was assessed by cytotoxicity assay. […]

[2] = system: A549, MDA-MB-231, HCT-116, U2OS, RD18, DBTRG, U87, U251 and DAOY cancer cell lines; experiment: Cytotoxicity on additional cancer cell lines; format: cell-based; settings: 72 h
Description: as §2, §3

T1 sequence (O00571 whole entry): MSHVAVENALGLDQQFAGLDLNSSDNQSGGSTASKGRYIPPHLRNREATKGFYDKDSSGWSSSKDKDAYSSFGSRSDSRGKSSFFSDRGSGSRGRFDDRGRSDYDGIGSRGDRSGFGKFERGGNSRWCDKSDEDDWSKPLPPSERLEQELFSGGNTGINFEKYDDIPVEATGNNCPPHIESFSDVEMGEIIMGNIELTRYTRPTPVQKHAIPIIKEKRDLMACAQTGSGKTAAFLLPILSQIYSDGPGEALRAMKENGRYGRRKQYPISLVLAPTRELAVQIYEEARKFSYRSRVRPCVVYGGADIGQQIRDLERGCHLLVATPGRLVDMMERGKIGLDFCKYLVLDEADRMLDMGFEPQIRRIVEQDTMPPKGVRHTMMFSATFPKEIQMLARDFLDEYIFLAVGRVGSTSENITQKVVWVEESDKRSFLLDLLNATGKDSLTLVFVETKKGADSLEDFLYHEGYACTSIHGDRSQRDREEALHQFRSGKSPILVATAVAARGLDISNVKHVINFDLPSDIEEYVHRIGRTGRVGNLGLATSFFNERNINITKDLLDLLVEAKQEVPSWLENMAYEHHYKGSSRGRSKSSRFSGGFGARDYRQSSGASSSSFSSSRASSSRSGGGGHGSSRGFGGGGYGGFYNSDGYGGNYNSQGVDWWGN

SI (Selectivity Index) (DDX1) | IC50 (DDX1) [µM] | inhibition of the ATPase activity of DDX3X (ATPase DDX3X; any compound concentration) | Compound | IC50 (ATPase DDX3X) [µM] | growth inhibition in all the cell lines tested [1] | CC50s against the additional cell lines [2]
>1000 | > 100 |  | CC(C)CCc1cn(-c2ccc(NC(=O)Nc3cccc4cnccc34)cn2)nn1 [Compound 10, 1-(6-(4-Isopentyl-1H-1,2,3-triazol-1-yl)pyridin-3-yl)-3-(isoquinolin-5-yl)urea] |  |  | 
418 | 29.3 ± 16.8 |  | CCCCc1nnc(-c2ccc(NC(=O)Nc3ccccc3C(F)(F)F)cc2)[nH]1 [Compound 4, 1-(4-(5-Butyl-4H-1,2,4-triazol-3-yl)phenyl)-3-(2-(trifluoromethyl)phenyl)urea] |  | showed inhibition growth capability in all the cell lines tested | 
>250 | > 100 | no inhibition | CCCCc1cn(-c2ccc(NC(=O)Nc3ccccc3C(F)(F)F)cc2)nn1 [BA103, 1-(4-(4-Butyl-1H-1,2,3-triazol-1-yl)phenyl)-3-(2-(trifluoromethyl)phenyl)urea] | > 200 |  | micromolar CC50s

Compound | SI (Selectivity Index) (DDX1) | IC50 (DDX1) [µM] | inhibition of the ATPase activity of DDX3X (ATPase DDX3X; any compound concentration) | IC50 (ATPase DDX3X) [µM] | growth inhibition in all the cell lines tested [1] | CC50s against the additional cell lines [2]
CCCCc1cn(-c2ccc(NC(=O)Nc3ccccc3C)cc2)nn1 [Compound 1, reference compound] | >666 | > 200 |  | > 200 |  | 
